{
  "source": "patent US8361711B2",
  "about": "“Tools and methods useful in characterising the immunotoxic activity of xenobiotic substances” (National Institute of Public Health and the Environment, …, priority 2004, dated 2013)",
  "key": {"[1]": {"tested_on": "IL-2 reporter cells EL/p1-5′IL2-EGFP/3 and EL/p1-5′IL2-dEGFP/6 (EL4)", "assay": "Preliminary test of IL-2 reporter cells (FACS, fluorescence microscope, Fluorostar)", "assay_type": "cell-based, mouse"}, "[2]": {"tested_on": "BW5147.3 derived GFP transfected cell clones", "assay": "BW5147.3 derived GFP transfected cell clones, GFP expression", "assay_type": "cell-based", "from_the_text": "BW5147.3 derived GFP transfected cell clones have been also used to test the effects of immunomodulatory compounds."}, "IFNγ": {"tested_on": "IFNγ", "assay": "RT-PCR of endogenous cytokine expression in activated reporter cell lines", "assay_type": "cell-based", "experimental": "(§1) In order to correlate the GFP expression data with effects on the expression of endogenous cytokine mRNA, RT-PCR analysis was performed. Non-transfected EL4 and BW5147.3 cells were activated with TPA/ionomycin or anti-CD3 and RNA was prepared. Following cDNA synthesis PCR was performed to detect expression of IL-2, IFNγ, and GAPDH (control). The results generally agree with the GFP expression data. In BW5147.3 cells neither IL-2, nor IFNγ mRNA, could be detected in non-induced cells or after activation. In EL4 cells, IL-2 and IFNγ expression could be induced by TPA/ionomycin, but not anti-CD3.\n(§2) For EL4 derived cells basal GFP expression was not affected following treatment with any of the above chemicals. […] This inhibitory effect of Cyclosporine was observed independently in all three laboratories performing such experiments. Furthermore, this inhibition of EGFP expression was detected with all three techniques emplyed for EGFP measurements (i.e. FACS, fluorescence microscope, and Fluorostar)."}, "IL-2": {"tested_on": "IL-2", "assay": "RT-PCR of endogenous cytokine expression in activated reporter cell lines", "assay_type": "cell-based", "experimental": "as §1, §2"}, "[3]": {"tested_on": "cell lines developed in the project", "description": "The basic cytotoxicty assay employed was LDH release. Several cytotoxicity assays were performed independently in two laboratories. […] In addition, the cytotoxicity associated with the solvent was also tested to eliminate the possibility of interference in the test outcome.\nCells were plated in 24 well microtiter plates at a density of 0.5×10^6 cells/mL and with a final volume of 1.5 mL/well. Two controls were included for each cell line, in each experiment."}, "[4]": {"tested_on": "IL-2 fused to a stabile form of EGFP", "assay": "Clones with IL-2 regulatory elements fused to a stabile form of EGFP", "assay_type": "cell-based, mouse", "conditions": "all tested concentrations", "experimental": "(§3) Samples were analyzed in an EPICS® XL-MCL Coulter flow cytometer with Expo v.2 Analysis Software/Expo32 Analysis Software (Applied Cytometry Systems, Sheffield, UK). or any other suitable flow cytometer. Viable and dead cells were gated separately and results were determined based on fluorescence associated with viable cells only. Regions were set in control cells and the same regions were used in induction controls and chemically challenged cells. Percent positive cells and fluorescence intensity were noted and used in further calculations.\n(§4) Index numbers were calculated from the median fluorescence intensity of viable cells. Cells incubated in the absence or presence of ionomycin/PMA were analysed separately. Each clone incubated with or without ionomycin/PMA, but without further chemicals/compounds was defined as index number=1, and the index numbers for the other exposures were calculated from this.\n(§5) One way ANOVAs (one way analysis of variance) were performed. In cases where normality failed, we used Kruskal-Wallis One Way Analysis of Variance on Ranks. If the differences between groups were statistically significant (p<0.05), we continued with tests for multiple comparisons. In normally distributed data we used Bonferroni t-test and multiple comparisons versus the control. The control was chosen to be the sample incubated in the presence or absence of ionomycin/PMA only. When normality failed we used […] for multiple comparisons versus the control."}, "[5]": {"tested_on": "IFN-γ fused to a stabile form of EGFP", "assay": "Clones with IFN-γ regulatory elements fused to a stabile form of EGFP", "assay_type": "cell-based, mouse", "conditions": "all tested concentrations", "experimental": "as §3, §4, §5"}},
  "data": [
    {"compound": "Clc1cc2c(cc1Cl)Oc1cc(Cl)c(Cl)cc1O2", "note": "[TCDD]", "values": [
      {"measurement": "basal GFP expression", "setting": "[1]; EL4 derived cells, not activated", "result": "not affected"},
      {"measurement": "activation induced GFP expression", "setting": "[1]; activation with TPA/ionophore", "result": "did not have any effect"},
      {"measurement": "basal GFP expression", "setting": "[2]", "result": "did not affect the basal GFP expression"},
      {"measurement": "upregulation of expression of IFNγ (RT-PCR)", "setting": "IFNγ", "result": "had no effect"},
      {"measurement": "upregulation of expression of IL-2 (RT-PCR)", "setting": "IL-2", "result": "had no effect"}
    ]},
    {"compound": "CC1(C)S[C@@H]2[C@H](NC(=O)Cc3ccccc3)C(=O)N2[C@H]1C(=O)[O-].[Na+]", "note": "[penicillin G, Penicillin G (Benzylpenicillin) sodium salt]", "values": [
      {"measurement": "toxicity (LDH-assay)", "setting": "[3]", "result": "did not find penicillin G to be toxic"},
      {"measurement": "IL-2 expression, stabile EGFP clone", "setting": "[4]; absence of ionomycin/PMA", "result": "failed to alter expression"},
      {"measurement": "IL-2 expression, stabile EGFP clone", "setting": "[4]; presence of ionomycin/PMA", "result": "failed to alter expression"},
      {"measurement": "IFN-γ expression, stabile EGFP clone", "setting": "[5]; absence of ionomycin/PMA", "result": "failed to alter expression"},
      {"measurement": "IFN-γ expression, stabile EGFP clone", "setting": "[5]; presence of ionomycin/PMA", "result": "failed to alter expression"}
    ]}
  ]
}
